Results on five molecules are retold here after PubChem BioAssay AID1745844 (Carcinogenic Potency Database (CPDB), 2022).

Calls of active or inactive are those of the source. How the calls were made is not given here.

The subject of this series is rodent lifetime carcinogenesis bioassay, tumor incidence TD50. Kind of series: chronic cancer bioassays in animals – CPDB, compiled studies (AID 1745844).

One may read the TD50 as the 50% point of the dose-response relation for the toxic effect studied. Turning to `Oc1ccc2ccccc2c1N=Nc1ccccc1`, the TD50 (mouse, strain B6C3F1, females, in feed, site: all sites, lesion: lymphoma, dosed 103 weeks, study length 105 weeks) was 128 mg/kg/day (inactive); the TD50 (mouse, strain B6C3F1, females, in feed, site: any site (literature study), lesion: several types, types named in the paper, dosed 103 weeks, study length 105 weeks) was 391 mg/kg/day; the TD50 (mouse, strain B6C3F1, females, in feed, site: liver, lesion: hepatocellular adenoma + hepatocellular carcinoma + neoplastic nodule, dosed 103 weeks, study length 105 weeks) amounted to 833 mg/kg/day; the TD50 (mouse, strain B6C3F1, females, in feed, site: lung, lesion: alveolar/bronchiolar adenoma + alveolar/bronchiolar carcinoma, dosed 103 weeks, study length 105 weeks) was 3030 mg/kg/day; the TD50 (mouse, strain B6C3F1, males, in feed, site: any site (literature study), lesion: several types, types named in the paper, dosed 103 weeks, study length 105 weeks) was 154 mg/kg/day (inactive); the TD50 (mouse, strain B6C3F1, males, in feed, site: liver, lesion: hepatocellular adenoma + hepatocellular carcinoma + neoplastic nodule, dosed 103 weeks, study length 105 weeks) was found to be 587 mg/kg/day. Further, the TD50 is, setting by setting: (mouse, strain B6C3F1, males, in feed, site: lung, lesion: alveolar/bronchiolar adenoma + alveolar/bronchiolar carcinoma, dosed 103 weeks, study length 105 weeks) 1080 mg/kg/day; (rat, strain Fischer 344, females, in feed, site: liver, lesion: hepatocellular adenoma + hepatocellular carcinoma + neoplastic nodule, dosed 103 weeks, study length 104 weeks) 86.5 mg/kg/day; (rat, strain Fischer 344, females, in feed, site: liver, lesion: hepatocellular carcinoma + neoplastic nodule, dosed 103 weeks, study length 104 weeks) 86.5 mg/kg/day; (rat, strain Fischer 344, females, in feed, site: liver, lesion: neoplastic nodule, dosed 103 weeks, study length 104 weeks) 96.6 mg/kg/day; (rat, strain Fischer 344, females, in feed, site: subcutaneous tissue, lesion: fibroma, dosed 103 weeks, study length 104 weeks) 346 mg/kg/day; (rat, strain Fischer 344, males, in feed, site: any site (literature study), lesion: several types, types named in the paper, dosed 103 weeks, study length 104 weeks) 106 mg/kg/day. The TD50 (rat, strain Fischer 344, males, in feed, site: liver, lesion: hepatocellular adenoma + hepatocellular carcinoma + neoplastic nodule, dosed 103 weeks, study length 104 weeks) turned out to be 17.9 mg/kg/day; the TD50 (rat, strain Fischer 344, males, in feed, site: liver, lesion: hepatocellular carcinoma + neoplastic nodule, dosed 103 weeks, study length 104 weeks) was 17.9 mg/kg/day; the TD50 (rat, strain Fischer 344, males, in feed, site: liver, lesion: neoplastic nodule, dosed 103 weeks, study length 104 weeks) was 17.7 mg/kg/day. In addition, the carcinogen call by setting is: (mouse, strain CBA, females, in feed, site: liver, lesion: hepatoma, dosed 52 weeks, study length 104 weeks) “negative (inactive)”; (mouse, strain CBA, males, in feed, site: liver, lesion: hepatoma, dosed 52 weeks, study length 104 weeks) “negative (inactive)”.
As to `COC1COC(OC2COC(OC3COC(OC4COC(OC)C(OS(=O)(=O)O)C4OS(=O)(=O)O)C(OC4OC(C(=O)O)C(OC)C(OS(=O)(=O)O)C4OS(=O)(=O)O)C3OS(=O)(=O)O)C(OS(=O)(=O)O)C2OS(=O)(=O)O)C(OS(=O)(=O)O)C1OS(=O)(=O)O` (stereo not drawn), the TD50 (mouse, strain B6C3F1, females, by gavage, site: all sites, lesion: hemangioma + hemangiosarcoma, dosed 104 weeks, study length 104 weeks) was determined as 1700 mg/kg/day; the TD50 (mouse, strain B6C3F1, females, by gavage, site: all sites, lesion: hemangioma, dosed 104 weeks, study length 104 weeks) was determined as 4340 mg/kg/day; the TD50 (mouse, strain B6C3F1, females, by gavage, site: all sites, lesion: malignant lymphoma, dosed 104 weeks, study length 104 weeks) is 927 mg/kg/day; the TD50 (mouse, strain B6C3F1, females, by gavage, site: any site (literature study), lesion: several types, types named in the paper, dosed 104 weeks, study length 104 weeks) came to 660 mg/kg/day; the TD50 (mouse, strain B6C3F1, females, by gavage, site: liver, lesion: hemangiosarcoma + hepatocellular adenoma + hepatocellular carcinoma, dosed 104 weeks, study length 104 weeks) was 663 mg/kg/day; the TD50 (mouse, strain B6C3F1, females, by gavage, site: liver, lesion: hemangiosarcoma, dosed 104 weeks, study length 104 weeks) is 3160 mg/kg/day. Further, the TD50 was 867 mg/kg/day (mouse, strain B6C3F1, females, by gavage, site: liver, lesion: hepatocellular adenoma + hepatoblastoma + hepatocellular carcinoma, dosed 104 weeks, study length 104 weeks); 867 mg/kg/day (mouse, strain B6C3F1, females, by gavage, site: liver, lesion: hepatocellular adenoma + hepatocellular carcinoma, dosed 104 weeks, study length 104 weeks); 991 mg/kg/day (mouse, strain B6C3F1, females, by gavage, site: liver, lesion: hepatocellular adenoma, dosed 104 weeks, study length 104 weeks); 1340 mg/kg/day (mouse, strain B6C3F1, males, by gavage, site: all sites, lesion: hemangiosarcoma, dosed 104 weeks, study length 104 weeks); 297 mg/kg/day (mouse, strain B6C3F1, males, by gavage, site: any site (literature study), lesion: several types, types named in the paper, dosed 104 weeks, study length 104 weeks); 1090 mg/kg/day (mouse, strain B6C3F1, males, by gavage, site: liver, lesion: hemangiosarcoma, dosed 104 weeks, study length 104 weeks). Moreover, the TD50 by setting is: (mouse, strain B6C3F1, males, by gavage, site: liver, lesion: hepatocellular adenoma + hepatoblastoma + hepatocellular carcinoma, dosed 104 weeks, study length 104 weeks) 538 mg/kg/day; (mouse, strain B6C3F1, males, by gavage, site: liver, lesion: hepatocellular adenoma + hepatocellular carcinoma, dosed 104 weeks, study length 104 weeks) 499 mg/kg/day; (mouse, strain B6C3F1, males, by gavage, site: lung, lesion: alveolar/bronchiolar adenoma + alveolar/bronchiolar carcinoma, dosed 104 weeks, study length 104 weeks) 8000 mg/kg/day; (rat, strain Fischer 344, females, by gavage, site: any site (literature study), lesion: several types, types named in the paper, dosed 104 weeks, study length 104 weeks) 1980 mg/kg/day (inactive). For the same molecule, the carcinogen call (rat, strain Fischer 344, males, by gavage, site: any site (literature study), lesion: several types, types named in the paper, dosed 104 weeks, study length 104 weeks) is “negative (inactive)”.
For the molecule `O=C([O-])c1cc(N=Nc2ccc(-c3ccc(N=Nc4c(O)ccc(N=Nc5cc(S(=O)(=O)[O-])ccc5[O-])c4[O-])cc3)cc2)ccc1O.[Cu+2].[Na+].[Na+]`, the TD50 is 2.07 mg/kg/day (rat, strain Fischer 344, females, in feed, site: any site (literature study), lesion: several types, types named in the paper, dosed 13 weeks, study length 13 weeks); 2.07 mg/kg/day (rat, strain Fischer 344, females, in feed, site: liver, lesion: hepatocellular adenoma + hepatocellular carcinoma + neoplastic nodule, dosed 13 weeks, study length 13 weeks); 2.07 mg/kg/day (rat, strain Fischer 344, females, in feed, site: liver, lesion: hepatocellular carcinoma + neoplastic nodule, dosed 13 weeks, study length 13 weeks). The carcinogen call (rat, strain Fischer 344, males, in feed, site: any site (literature study), lesion: several types, types named in the paper, dosed 13 weeks, study length 13 weeks) is “negative (inactive)”.
`CN(N=O)C(=O)N[C@@H](C=O)[C@@H](O)[C@H](O)[C@H](O)CO`: the TD50 (mouse, strain Swiss, females, i.p., site: any site (literature study), lesion: benign tumor, dosed 26 weeks, study length 78 weeks) amounted to 0.188 mg/kg/day; the TD50 (mouse, strain Swiss, females, i.p., site: any site (literature study), lesion: malignant tumor, dosed 26 weeks, study length 78 weeks) amounted to 6.32 mg/kg/day; the TD50 (mouse, strain Swiss, females, i.p., site: any site (literature study), lesion: several types, types named in the paper, dosed 26 weeks, study length 78 weeks) turned out to be 0.486 mg/kg/day; the TD50 (mouse, strain Swiss, females, i.p., site: kidney, lesion: adenoma, dosed 26 weeks, study length 78 weeks) is 1.39 mg/kg/day; the TD50 (mouse, strain Swiss, females, i.p., site: lung, lesion: several types, types named in the paper, dosed 26 weeks, study length 78 weeks) is 0.193 mg/kg/day; the TD50 (mouse, strain Swiss, females, i.p., site: uterus, lesion: sarcoma, dosed 26 weeks, study length 78 weeks) was 13.9 mg/kg/day. The TD50 was 0.698 mg/kg/day (mouse, strain Swiss, males, i.p., site: any site (literature study), lesion: benign tumor, dosed 26 weeks, study length 72 weeks); 3.53 mg/kg/day (mouse, strain Swiss, males, i.p., site: any site (literature study), lesion: malignant tumor, dosed 26 weeks, study length 72 weeks); 0.217 mg/kg/day (mouse, strain Swiss, males, i.p., site: any site (literature study), lesion: several types, types named in the paper, dosed 26 weeks, study length 72 weeks); 2.44 mg/kg/day (mouse, strain Swiss, males, i.p., site: kidney, lesion: tubular-cell adenoma, dosed 26 weeks, study length 72 weeks); 27.3 mg/kg/day (mouse, strain Swiss, males, i.p., site: liver, lesion: several types, types named in the paper, dosed 26 weeks, study length 72 weeks); 0.462 mg/kg/day (mouse, strain Swiss, males, i.p., site: lung, lesion: several types, types named in the paper, dosed 26 weeks, study length 72 weeks). Besides, the TD50 was 0.363 mg/kg/day (rat, strain Charles River CD (Sprague-Dawley), females, i.p., site: any site (literature study), lesion: malignant tumor, dosed 26 weeks, study length 78 weeks); 1.14 mg/kg/day (rat, strain Charles River CD (Sprague-Dawley), females, i.p., site: any site (literature study), lesion: several types, types named in the paper, dosed 26 weeks, study length 78 weeks); 1.27 mg/kg/day (rat, strain Charles River CD (Sprague-Dawley), females, i.p., site: kidney, lesion: several types, types named in the paper, dosed 26 weeks, study length 78 weeks); 5.63 mg/kg/day (rat, strain Charles River CD (Sprague-Dawley), females, i.p., site: liver, lesion: cavernous hemangioma, dosed 26 weeks, study length 78 weeks); 4.43 mg/kg/day (rat, strain Charles River CD (Sprague-Dawley), females, i.p., site: liver, lesion: several types, types named in the paper, dosed 26 weeks, study length 78 weeks); 1.41 mg/kg/day (rat, strain Charles River CD (Sprague-Dawley), females, i.p., site: mammary gland, lesion: carcinoma, dosed 26 weeks, study length 78 weeks). Besides, the TD50 (rat, strain Charles River CD (Sprague-Dawley), females, i.p., site: uterus, lesion: sarcoma, dosed 26 weeks, study length 78 weeks) turned out to be 2.46 mg/kg/day; the TD50 (rat, strain Charles River CD (Sprague-Dawley), males, i.p., site: any site (literature study), lesion: benign tumor, dosed 26 weeks, study length 78 weeks) came to 16.8 mg/kg/day; the TD50 (rat, strain Charles River CD (Sprague-Dawley), males, i.p., site: any site (literature study), lesion: malignant tumor, dosed 26 weeks, study length 78 weeks) stood at 1.03 mg/kg/day; the TD50 (rat, strain Charles River CD (Sprague-Dawley), males, i.p., site: any site (literature study), lesion: several types, types named in the paper, dosed 26 weeks, study length 78 weeks) amounted to 0.751 mg/kg/day; the TD50 (rat, strain Charles River CD (Sprague-Dawley), males, i.p., site: kidney, lesion: several types, types named in the paper, dosed 26 weeks, study length 78 weeks) was 0.776 mg/kg/day; the TD50 (rat, strain Charles River CD (Sprague-Dawley), males, i.p., site: liver, lesion: liver-cell carcinoma, dosed 26 weeks, study length 78 weeks) stood at 20.4 mg/kg/day.
With `CN1C(C(=O)Nc2ccccn2)=C(O)c2sc(Cl)cc2S1(=O)=O`, the carcinogen call by setting is: (rat, strain Sprague-Dawley, females, by gavage, site: any site (literature study), lesion: several types, types named in the paper, dosed 104 weeks, study length 104 weeks) “negative (inactive)”; (rat, strain Sprague-Dawley, females, by gavage, site: kidney, lesion: one or several types, types not named, dosed 52 weeks, study length 52 weeks) “negative (inactive)”; (rat, strain Sprague-Dawley, males, by gavage, site: any site (literature study), lesion: several types, types named in the paper, dosed 104 weeks, study length 104 weeks) “negative (inactive)”; (rat, strain Sprague-Dawley, males, by gavage, site: kidney, lesion: one or several types, types not named, dosed 52 weeks, study length 52 weeks) “negative (inactive)”; (rat, strain Sprague-Dawley, males, by gavage, site: liver, lesion: several types, types named in the paper, dosed 104 weeks, study length 104 weeks) “negative (inactive)”. In addition, the TD50 (rat, strain Sprague-Dawley, females, by gavage, site: liver, lesion: hepatocellular adenoma, dosed 104 weeks, study length 104 weeks) is 13.2 mg/kg/day (inactive).
